Assay results taken from US20240287138A1, “CYCLIC PEPTIDES FOR INHIBITING TNF RECEPTOR 1 ACTIVITY” (Merck Sharp & Dohme LLC, priority 2023, published 2024).
Read-outs that look alike come from different tables or passages of the source. Numbered stars: 1 amine (or outer) side, 2 acyl side, 3 side chain; on linkers, the order of the positions; unused ones are H or OH. Bridge positions count the residues as written; N and C are the ends. Square brackets hold non-standard residues; d marks the D form. Peptide text beside a SMILES is read from it. Trp(βS-Me,7-OMe) = COc1cccc2c([C@H](C)[C@H](N)C(=O)O)c[nH]c12; Trp(βS-Me) = C[C@@H](c1c[nH]c2ccccc12)[C@H](N)C(=O)O; Trp(7-CN) = N#Cc1cccc2c(C[C@H](N)C(=O)O)c[nH]c12; Trp(7-Cl) = N[C@@H](Cc1c[nH]c2c(Cl)cccc12)C(=O)O; Phe(3-CONH2) = NC(=O)c1cccc(C[C@H](N)C(=O)O)c1; Phe(4-CONH2) = NC(=O)c1ccc(C[C@H](N)C(=O)O)cc1; Phe(4-COOH) = N[C@@H](Cc1ccc(C(=O)O)cc1)C(=O)O; X9 = CN(C)[C@@H]1C[C@H](C(=O)[*:2])N([*:1])C1; Phe(4-CH2NH2) = NCc1ccc(C[C@H](N)C(=O)O)cc1; Pip(5R-OH) = O=C(O)[C@@H]1CC[C@@H](O)CN1; X1 = O=C([C@@H]1CC[C@H](N[*:1])C1)[*:2]; 2Nal = N[C@@H](Cc1ccc2ccccc2c1)C(=O)O; Pip(4-aza) = O=C(O)[C@@H]1CNCCN1; 4Pal = N[C@@H](Cc1ccncc1)C(=O)O; dHyp = O=C(O)[C@H]1C[C@H](O)CN1; Cit = NC(=O)NCCC[C@H](N)C(=O)O; Ahp(2) = CCCCC[C@H](N)C(=O)O; αMeS = C[C@](N)(CO)C(=O)O; Nle = CCCC[C@H](N)C(=O)O; Sar = CNCC(=O)O

What was measured:
[1] = molecular target: T1, human TNFR1 extracellular domain (ECD) protein (Homo sapiens, UniProt P19438); assay: SPR binding affinity to captured human TNFR1 ECD
T1 construct: HRV 3C protease cleavage site (C); 6His (C, cleaved yes); made in house; host or cells: Sf21 insect cells (baculovirus), secreted
T1 sequence (P19438 30-211): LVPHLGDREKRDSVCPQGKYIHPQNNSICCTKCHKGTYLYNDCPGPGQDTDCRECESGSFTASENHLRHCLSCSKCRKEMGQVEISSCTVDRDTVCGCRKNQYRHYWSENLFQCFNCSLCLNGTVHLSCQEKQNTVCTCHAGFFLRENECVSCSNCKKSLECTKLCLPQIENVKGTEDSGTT
Procedure, shortened: (§1)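 Peptides are tested against captured biotin-tagged human TNFR1 ECD, with parallel TNFR2 ECD binding to check selectivity. Buffer: 10 mM HEPES pH 7.4, 150 mM NaCl, 3 mM EDTA, 0.05% P20, 2% DMSO.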

human TNFR2 ECD protein = molecular target: T2, human TNFR2 ECD protein (Homo sapiens, UniProt P20333); assay: SPR off-target binding (selectivity) to human TNFR2 ECD
T2 construct: HRV 3C protease cleavage site (C); 6His (C, cleaved yes); made in house; host or cells: Sf21 insect cells (baculovirus), secreted
T2 sequence (P20333 23-257): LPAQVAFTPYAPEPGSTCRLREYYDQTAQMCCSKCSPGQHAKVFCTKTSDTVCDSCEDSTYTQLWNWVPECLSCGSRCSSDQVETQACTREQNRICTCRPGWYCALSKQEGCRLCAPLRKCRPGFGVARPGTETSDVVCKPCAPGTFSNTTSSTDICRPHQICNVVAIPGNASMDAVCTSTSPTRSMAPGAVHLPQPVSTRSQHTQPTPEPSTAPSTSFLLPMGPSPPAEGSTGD
Procedure, shortened: as §1

[2] = molecular target: T3, TNFα-induced NF-κB signal transduction pathway (TNFR1 signaling) in THP-1 cells (Homo sapiens, UniProt P19438); assay: THP-1 Lucia NF-κB reporter cell assay, inhibition of TNFα-induced NF-κB signaling; type: cell-based; settings: THP-1 NF-κB Lucia reporter cells, 10 ng/mL TNFα, 16-18 h, secreted luciferase; read-out: THP-1 IC50
T3 sequence (P19438 30-455): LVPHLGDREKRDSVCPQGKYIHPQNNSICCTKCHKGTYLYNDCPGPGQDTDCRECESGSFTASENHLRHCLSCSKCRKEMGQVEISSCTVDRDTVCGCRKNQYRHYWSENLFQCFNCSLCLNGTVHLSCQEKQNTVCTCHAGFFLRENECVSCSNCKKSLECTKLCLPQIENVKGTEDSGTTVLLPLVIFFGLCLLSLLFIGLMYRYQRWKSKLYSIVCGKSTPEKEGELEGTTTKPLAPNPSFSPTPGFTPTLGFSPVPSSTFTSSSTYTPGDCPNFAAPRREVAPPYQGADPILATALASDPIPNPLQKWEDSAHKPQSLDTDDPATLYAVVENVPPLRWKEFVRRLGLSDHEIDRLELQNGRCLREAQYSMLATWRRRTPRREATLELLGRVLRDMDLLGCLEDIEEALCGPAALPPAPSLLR
Procedure, shortened: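 Macrocyclic peptides were preincubated 1 h at 37 °C with THP-1 NF-κB-Lucia reporter cells (20,000 cells/well) in antibiotic-free RPMI 1640/10% FBS, then stimulated with 10 ng/mL human TNFα overnight (16-18 h). Secreted luciferase in supernatant was read by luminescence; IC50 from 4-parameter logistic fits.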

[3] = biotinylated human TNFR1 ECD on streptavidin chip, from kon and koff, read-out: SPR hTNFR1 KD
[4] = biotinylated human TNFR2 ECD on streptavidin chip, read-out: SPR hTNFR2 KD

| Compound | Kd [1] | Kd (human TNFR2 ECD protein) | IC50 [2] | Kd [1, 3] | Kd (human TNFR2 ECD protein; [4]) |
| --- | --- | --- | --- | --- | --- |
| CCCCC[C@@H]1NC(=O)[C@@H]2CC[C@@H](C2)NC(=O)[C@H]([C@@H](C)c2c[nH]c3c(OC)cccc23)NC(=O)CN(C)C(=O)[C@H](Cc2cccc(C(N)=O)c2)NC(=O)[C@H](Cc2ccc(C(N)=O)cc2)NC(=O)[C@](C)(CO)NC(=O)[C@H](Cc2c[nH]c3c(C#N)cccc23)NC(=O)[C@H](Cc2ccc(C(=O)O)cc2)NC(=O)[C@H](CC(N)=O)NC(=O)[C@H]2C[C@@H](N(C)C)CN2C(=O)[C@H](Cc2c[nH]c3ccccc23)NC(=O)[C@@H]2CC[C@@H](O)CN2C(=O)[C@H](Cc2ccncc2)NC1=O [SEQ ID NO. 84] (cyclo([4Pal][Pip(5R-OH)]W[X9]N[Phe(4-COOH)][Trp(7-CN)][αMeS][Phe(4-CONH2)][Phe(3-CONH2)][Sar][Trp(βS-Me,7-OMe)][X1][Ahp(2)])) | 0.02 nM | > 1000 nM | 0.6 nM | – | – |
| CCCC[C@@H]1NC(=O)[C@@H]2CC[C@@H](C2)NC(=O)[C@H]([C@@H](C)c2c[nH]c3c(OC)cccc23)NC(=O)CN(C)C(=O)[C@H](Cc2ccc(CN)cc2)NC(=O)[C@H](Cc2ccc(C(N)=O)cc2)NC(=O)[C@](C)(CO)NC(=O)[C@H](Cc2c[nH]c3c(C#N)cccc23)NC(=O)[C@H](Cc2ccc(C(=O)O)cc2)NC(=O)[C@H](CC(N)=O)NC(=O)[C@H]2C[C@H](O)CN2C(=O)[C@H](Cc2c[nH]c3ccccc23)NC(=O)[C@@H]2CC[C@@H](O)CN2C(=O)[C@H](Cc2ccncc2)NC1=O [SEQ ID NO. 48] (cyclo([4Pal][Pip(5R-OH)]W[dHyp]N[Phe(4-COOH)][Trp(7-CN)][αMeS][Phe(4-CONH2)][Phe(4-CH2NH2)][Sar][Trp(βS-Me,7-OMe)][X1][Nle])) | – | – | 0.7 nM | 0.03 nM | > 1000 nM |
| CCCC[C@@H]1NC(=O)[C@@H]2CC[C@@H](C2)NC(=O)[C@H]([C@@H](C)c2c[nH]c3c(OC)cccc23)NC(=O)CN(C)C(=O)[C@H](Cc2ccc(C(=O)O)cc2)NC(=O)[C@H](Cc2ccc(C(N)=O)cc2)NC(=O)[C@](C)(CO)NC(=O)[C@H](Cc2c[nH]c3c(Cl)cccc23)NC(=O)[C@H](Cc2ccncc2)NC(=O)[C@H](CC(N)=O)NC(=O)[C@H]2C[C@H](O)CN2C(=O)[C@H](Cc2c[nH]c3ccccc23)NC(=O)[C@@H]2CNCCN2C(=O)[C@H](Cc2ccncc2)NC1=O [SEQ ID NO. 83] (cyclo([4Pal][Trp(7-Cl)][αMeS][Phe(4-CONH2)][Phe(4-COOH)][Sar][Trp(βS-Me,7-OMe)][X1][Nle][4Pal][Pip(4-aza)]W[dHyp]N)) | – | – | 0.6 nM | 0.09 nM | > 1000 nM |
| CCCC[C@@H]1NC(=O)[C@@H]2CC[C@@H](C2)NC(=O)[C@H]([C@@H](C)c2c[nH]c3c(OC)cccc23)NC(=O)CN(C)C(=O)[C@H](Cc2ccc(C(N)=O)cc2)NC(=O)[C@H](Cc2ccc(C(N)=O)cc2)NC(=O)[C@](C)(CO)NC(=O)[C@H](Cc2c[nH]c3c(C#N)cccc23)NC(=O)[C@H](Cc2ccc(C(=O)O)cc2)NC(=O)[C@H](CC(N)=O)NC(=O)[C@H]2C[C@H](O)CN2C(=O)[C@H](Cc2c[nH]c3ccccc23)NC(=O)[C@@H]2CC[C@@H](O)CN2C(=O)[C@H](Cc2ccncc2)NC1=O [SEQ ID NO. 45] (cyclo([4Pal][Pip(5R-OH)]W[dHyp]N[Phe(4-COOH)][Trp(7-CN)][αMeS][Phe(4-CONH2)][Phe(4-CONH2)][Sar][Trp(βS-Me,7-OMe)][X1][Nle])) | – | – | 0.6 nM | 0.01 nM | > 1000 nM |
| C[C@@H](c1c[nH]c2ccccc12)[C@@H]1NC(=O)CN(C)C(=O)[C@H](Cc2ccc(CN)cc2)NC(=O)[C@H](Cc2ccc(C(=O)O)cc2)NC(=O)[C@](C)(CO)NC(=O)[C@H](Cc2ccc3ccccc3c2)NC(=O)[C@H](Cc2ccc(CN)cc2)NC(=O)[C@H](CC(N)=O)NC(=O)[C@H]2CCCN2C(=O)[C@H]([C@@H](C)c2c[nH]c3ccccc23)NC(=O)[C@H](CO)NC(=O)[C@H](Cc2ccc(CN)cc2)NC(=O)[C@H](CCCNC(N)=O)NC(=O)CSC[C@@H](C(N)=O)NC1=O [SEQ ID NO. 206] ({CH2CO}-[Cit][Phe(4-CH2NH2)]S[Trp(βS-Me)][dP]N[Phe(4-CH2NH2)][2Nal][αMeS][Phe(4-COOH)][Phe(4-CH2NH2)][Sar][Trp(βS-Me)]C-NH2; thioether N-14) | – | – | 271 nM | 3 nM | > 1000 nM |
